From patent publication US11918582B2 (RAPT Therapeutics, Inc., priority 2021, dated 2024)
Structures can show the parent of a compound that is named as a salt.

biological target: T1, human HPK1 (MAP4K1) (Homo sapiens, UniProt Q92918); assay: Biochemical assay for activity against HPK1 (ADP-Glo, MBP substrate); conditions: recombinant human HPK1 kinase domain, 1 nM enzyme, ADP-Glo luminescence
T1 construct: Recombinant human HPK1 kinase domain was obtained from ThermoFisher (Cat. #PV6357) and SignalChem (Cat. #M23-11G); purchased ThermoFisher; SignalChem PV6357; M23-11G
T1 sequence (Q92918 17-274 limits assumed): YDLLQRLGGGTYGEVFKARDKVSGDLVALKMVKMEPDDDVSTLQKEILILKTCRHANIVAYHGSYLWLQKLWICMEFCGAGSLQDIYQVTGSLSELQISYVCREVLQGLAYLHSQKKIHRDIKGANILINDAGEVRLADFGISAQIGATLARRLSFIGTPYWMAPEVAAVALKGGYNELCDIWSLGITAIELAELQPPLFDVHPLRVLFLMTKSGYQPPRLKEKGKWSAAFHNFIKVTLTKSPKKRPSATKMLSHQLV
Procedure, shortened: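 IC50s come from ADP-Glo luminescence after a 2 h room-temperature reaction phosphorylating MBP in the presence of ATP. Compound was first preincubated 15 min with 1 nM HPK1 kinase domain, human recombinant. Buffer: 50 mM HEPES pH 7.5, 150 mM NaCl, 3 mM TCEP, 10 mM MgCl2, 0.005% Tween-20, 0.01% BSA.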

Row | Structure (SMILES) | IC50 [nM]
1 | COc1cc2c(cc1Nc1ncc3cnn(C4CCN(C(C)=O)CC4)c3n1)CN(C)CC2 [Example 106, 1-(4-(6-((6-methoxy-2-methyl-1,2,3,4-tetrahydroisoquinolin-7-yl)amino)-1H-pyrazolo[3,4-d]pyrimidin-1-yl)piperidin-1-yl)ethan-1-one trifluoroacetate] | < 100
2 | COc1cc2c(cc1Nc1ncc3cnn(C4CCN(C(=O)C(F)(F)F)CC4)c3n1)CN(C)CC2 [Example 107, 2,2,2-trifluoro-1-(4-(6-((6-methoxy-2-methyl-1,2,3,4-tetrahydroisoquinolin-7-yl)amino)-1H-pyrazolo[3,4-d]pyrimidin-1-yl)piperidin-1-yl)ethan-1-one trifluroacetate] | 100 to 250
3 | COc1cc2c(cc1Nc1ncc3cnn(C4CCCN(S(C)(=O)=O)C4)c3n1)CN(C)CC2 (stereo not shown) [Example 108, 6-methoxy-2-methyl-N-(1-(1-(methylsulfonyl)piperidin-3-yl)-1H-pyrazolo[3,4-d]pyrimidin-6-yl)-1,2,3,4-tetrahydroisoquinolin-7-amine] | < 100
4 | COc1cc2c(cc1Nc1ncc3cnn(C4CCCN(C(C)=O)C4)c3n1)CN(C)CC2 (stereo not shown) [Example 109, 1-(3-(6-((6-methoxy-2-methyl-1,2,3,4-tetrahydroisoquinolin-7-yl)amino)-1H-pyrazolo[3,4-d]pyrimidin-1-yl)piperidin-1-yl)ethan-1-one] | < 100
5 | COc1cc2c(cc1Nc1ncc3cnn(C[C@@H]4CCCN4C(C)=O)c3n1)CN(C)CC2 [Example 110, (S)-1-(2-((6-((6-methoxy-2-methyl-1,2,3,4-tetrahydroisoquinolin-7-yl)amino)-1H-pyrazolo[3,4-d]pyrimidin-1-yl)methyl)pyrrolidin-1-yl)ethan-1-one] | < 100
6 | COc1cc2c(cc1Nc1ncc3cnn(C[C@@H]4CCCN4S(C)(=O)=O)c3n1)CN(C)CC2 [Example 111, (S)-6-methoxy-2-methyl-N-(1-((1-(methylsulfonyl)228yrrolidine-2-yl)methyl)-1H-pyrazolo[3,4-d]pyrimidin-6-yl)-1,2,3,4-tetrahydroisoquinolin-7-amine] | < 100
7 | CCC(=O)N1CCC[C@H]1Cn1ncc2cnc(Nc3cc4c(cc3OC)CCN(C)C4)nc21 [Example 112, (S)-1-(2-((6-((6-methoxy-2-methyl-1,2,3,4-tetrahydroisoquinolin-7-yl)amino)-1H-pyrazolo[3,4-d]pyrimidin-1-yl)methyl)pyrrolidin-1-yl)propan-1-one trifluoroacetate] | < 100
8 | COC(=O)N1CCC[C@H]1Cn1ncc2cnc(Nc3cc4c(cc3OC)CCN(C)C4)nc21 [Example 113, methyl (S)-2-((6-((6-methoxy-2-methyl-1,2,3,4-tetrahydroisoquinolin-7-yl)amino)-1H-pyrazolo[3,4-d]pyrimidin-1-yl)methyl)pyrrolidine-1-carboxylate trifluoroacetate] | < 100
9 | COc1cc2c(cc1Nc1ncc3cnn(C[C@@H]4CCCN4C(=O)CO)c3n1)CN(C)CC2 [Example 114, (S)-2-hydroxy-1-(2-((6-((6-methoxy-2-methyl-1,2,3,4-tetrahydroisoquinolin-7-yl)amino)-1H-pyrazolo[3,4-d]pyrimidin-1-yl)methyl)230yrrolidine-1-yl)ethan-1-one 2,2,2-trifluoroacetate] | < 100
10 | COc1cc2c(cc1Nc1ncc3c(C)nn(C[C@@H]4CCCN4C(C)=O)c3n1)CN(C)CC2 [Example 115, (S)-1-(2-((6-((6-methoxy-2-methyl-1,2,3,4-tetrahydroisoquinolin-7-yl)amino)-3-methyl-1H-pyrazolo[3,4-d]pyrimidin-1-yl)methyl)231yrrolidine-1-yl)ethan-1-one] | 100 to 250
11 | COc1cc2c(cc1Nc1ncc3c(C)nn(C[C@@H]4CCCN4S(C)(=O)=O)c3n1)CN(C)CC2 [Example 116, (S)-6-methoxy-2-methyl-N-(3-methyl-1-((1-(methylsulfonyl)pyrrolidin-2-yl)methyl)-1H-pyrazolo[3,4-d]pyrimidin-6-yl)-1,2,3,4-tetrahydroisoquinolin-7-amine] | 100 to 250
12 | COc1cc2c(cc1Nc1ncc3cnn(C[C@H]4CCCN4C(C)=O)c3n1)CN(C)CC2 [Example 117, (R)-1-(2-((6-((6-methoxy-2-methyl-1,2,3,4-tetrahydroisoquinolin-7-yl)amino)-1H-pyrazolo[3,4-d]pyrimidin-1-yl)methyl)pyrrolidin-1-yl)ethan-1-one trifluoroacetate] | < 100
13 | COc1cc2c(cc1Nc1ncc3cnn(C[C@H]4CCCN4S(C)(=O)=O)c3n1)CN(C)CC2 [Example 118, (R)-6-methoxy-2-methyl-N-(1-((1-(methylsulfonyl)pyrrolidin-2-yl)methyl)-1H-pyrazolo[3,4-d]pyrimidin-6-yl)-1,2,3,4-tetrahydroisoquinolin-7-amine trifluoroacetate] | < 100
14 | COc1cc2c(cc1Nc1ncc3cnn(C[C@H]4C[C@@H](NC(C)=O)C4)c3n1)CN(C)CC2 [Example 119, cis N-(3-((6-((6-methoxy-2-methyl-1,2,3,4-tetrahydroisoquinolin-7-yl)amino)-1H-pyrazolo[3,4-d]pyrimidin-1-yl)methyl)cyclobutyl)acetamide] | < 100
15 | COc1cc2c(cc1Nc1ncc3cnn(C[C@H]4C[C@@H](NS(C)(=O)=O)C4)c3n1)CN(C)CC2 [Example 120, cis N-(3-((6-((6-methoxy-2-methyl-1,2,3,4-tetrahydroisoquinolin-7-yl)amino)-1H-pyrazolo[3,4-d]pyrimidin-1-yl)methyl)cyclobutyl)methanesulfonamide trifluoroacetate] | < 100

More lines, now with the values ahead:

Row | IC50 [nM] | Structure (SMILES)
16 | < 100 | COc1cc2c(cc1Nc1ncc3cnn([C@H](C)CCO)c3n1)CN(C)CC2 [Example 99, (3R)-3-[6-[(6-methoxy-2-methyl-3,4-dihydro-1H-isoquinolin-7-yl)amino]pyrazolo[3,4-d]pyrimidin-1-yl]butan-1-ol]
17 | < 100 | COc1cc2c(cc1Nc1ncc3cnn([C@@H](C)CCO)c3n1)CN(C)CC2 [Example 100]
18 | < 100 | CC(C)n1ncc2cnc(Nc3ccc4c(c3)CN(C)CC4)nc21 [Example 101, N-(1-isopropyl-1H-pyrazolo[3,4-d]pyrimidin-6-yl)-2-methyl-1,2,3,4-tetrahydroisoquinolin-7-amine]
19 | < 100 | CN1CCc2ccc(Nc3ncc4cnn(C5CCCCC5)c4n3)cc2C1 [Example 102, N-(1-cyclohexyl-1H-pyrazolo[3,4-d]pyrimidin-6-yl)-2-methyl-1,2,3,4-tetrahydroisoquinolin-7-amine]
20 | < 100 | CN1CCc2ccc(Nc3ncc4cnn(C56CC7CC(CC(C7)C5)C6)c4n3)cc2C1 [Example 103, N-(1-((3s,5s,7s)-adamantan-1-yl)-1H-pyrazolo[3,4-d]pyrimidin-6-yl)-2-methyl-1,2,3,4-tetrahydroisoquinolin-7-amine]
21 | < 100 | COc1cc2c(cc1Nc1ncc3cnn(C(C)C)c3n1)CN(C)CC2 [Example 104, N-(1-isopropylpyrazolo[3,4-d]pyrimidin-6-yl)-6-methoxy-2-methyl-3,4-dihydro-1H-isoquinolin-7-amine]
22 | < 100 | COc1cc2c(cc1Nc1ncc3cnn(C4CCN(S(C)(=O)=O)CC4)c3n1)CN(C)CC2 [Example 105, 6-methoxy-2-methyl-N-(1-(1-(methylsulfonyl)piperidin-4-yl)-1H-pyrazolo[3,4-d]pyrimidin-6-yl)-1,2,3,4-tetrahydroisoquinolin-7-amine]
